The results in this text go back to patent publication EP4745135A1 (Gluetacs Therapeutics (Shanghai) Co., Ltd., priority 2023, dated 2025).

Each structure is given as a SMILES string.

Assay [1] concerns GSPT1. The assay can be described thus: Western blot, degradation of substrate protein in hPBMCs. The format is cell-based, Human. For orientation: Immunoblotting shows a protein as a band on a membrane.
The target in assay [2] is T1, human Cereblon WT GST-tagged protein (Homo sapiens, UniProt Q96SW2).
T1 construct: purchased CISBIO 64BDCRBNPEH
T1 sequence (Q96SW2 whole entry): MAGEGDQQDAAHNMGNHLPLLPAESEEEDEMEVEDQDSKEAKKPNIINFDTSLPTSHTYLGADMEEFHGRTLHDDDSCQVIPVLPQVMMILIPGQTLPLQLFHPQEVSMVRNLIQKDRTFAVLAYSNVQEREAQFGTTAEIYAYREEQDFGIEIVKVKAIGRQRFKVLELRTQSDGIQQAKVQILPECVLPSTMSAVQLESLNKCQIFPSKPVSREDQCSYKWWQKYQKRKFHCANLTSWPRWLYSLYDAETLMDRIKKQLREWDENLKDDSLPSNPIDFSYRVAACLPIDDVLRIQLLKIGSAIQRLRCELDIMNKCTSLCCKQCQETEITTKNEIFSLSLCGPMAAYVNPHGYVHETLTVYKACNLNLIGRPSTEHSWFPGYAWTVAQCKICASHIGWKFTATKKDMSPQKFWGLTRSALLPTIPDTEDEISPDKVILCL
As to the kind of experiment: CRBN-binding affinity, HTRF (CEREBLON BINDING kit). The following applies: for inhibition at 0.5 µM: read-out: Inhibition Rate at 0.5 µM (%); for inhibition at 2 µM: read-out: Inhibition Rate at 2 µM (%). (In general: Time-resolved FRET reads energy transfer from a long-lived donor to a nearby acceptor.)

For assay [3], the system named is Human myeloid monocytic leukemia cell (MV-4-11). As to the kind of experiment: Tumor cell proliferation inhibition (CellTiter-Meiluncell luminescent cell viability assay). Particulars: MV4-11, 96 h; for inhibition at 0.01 µM: read-out: Inhibition Rate at 10 nM (%); for inhibition at 0.5 µM: read-out: Inhibition Rate at 500 nM (%).
Assay [4] has as its system Human acute T lymphocytic leukemia cell (Molt4). Described as above. The following applies: MOLT-4, 96 h; for inhibition at 0.01 µM: read-out: Inhibition Rate at 10 nM (%); for inhibition at 0.5 µM: read-out: Inhibition Rate at 500 nM (%).
Procedure: The tumor cells used herein were cultured in a cell culture medium listed in table 2 at 37°C in an incubator with 5% CO2. Prior to experimentation, all cell lines used were correctly identified by STR profiling, and tested negative for mycoplasma contamination using a mycoplasma detection kit through routine screenings.
The IC50 values of the compounds of the present disclosure (including the compounds in Table 1 and Examples) were determined using the CellTiter-Meiluncell Luminescent Cell Viability Assay Kit from Dalian Meilun Biotech Co., Ltd. The detailed procedure is as follows: Tumor cells were seeded in 96-well cell culture plates at the densities specified in Table 3. On the following day, the test compounds of the present disclosure were subjected to serial dilution. The dilution can be performed according to one of the following two methods: • (1) The first dilution method: The test compounds of the present disclosure (including the compounds in Table 1 and Examples) were subjected to 5-fold serial dilutions starting from a highest concentration of 2000 µM, resulting in a total of 9 concentrations from high to low (2000, 400, 80, 16, 3.2, 0.64, 0.128, 0.0256, 0.00512 µM). Subsequently, 0.5 µL of the test compound dilution was transferred into the 96-well plate containing the cells, with each well containing 100 µL of cell culture medium. […] Into the 96-well plate, the diluted test compounds and corresponding detection reagents were added, resulting in final test compound concentrations of 500 nM and 10 nM, respectively. The experimental procedure is described below using the diluted 2 µM test compound as an example.
0.5 µL of the aforementioned diluted compound of the present disclosure (including the compounds in Table 1 and Examples) was added to the seeded cells in 100 µL of medium, yielding a final test compound concentration of 10 nM. After the cells were treated with the compounds of the present disclosure for a specified period, the cell viability assay reagent was added to the culture medium according to the kit's instructions to determine cell viability. […] All controls were treated using the same procedure as the compounds of the present disclosure. The growth inhibition curves for the compounds of the present disclosure were plotted using Prism GraphPad software, and the IC50 values were calculated therefrom.
Assay [5] concerns the target T2, IKZF2 (Homo sapiens, UniProt Q96SW2+Q9UKS7).
T2 construct: effects of the compounds of the present disclosure on the expression of target proteins in cells; endogenous in cells; host or cells: human PBMCs (Milecell Biotechnologies)
The assay can be described thus: Western blot, degradation of substrate protein in hPBMCs. The class given is cell-based.

Assay [6] has as its target T3, CK1α (Homo sapiens, UniProt P48729+Q96SW2).
T3 construct: effects of the compounds of the present disclosure on the expression of target proteins in cells; endogenous in cells; host or cells: human PBMCs (Milecell Biotechnologies)
The assay is described as above. The format is cell-based.

Assay [7] concerns the target T4, IKZF1 (Homo sapiens, UniProt Q13422+Q96SW2).
T4 construct: effects of the compounds of the present disclosure on the expression of target proteins in cells; endogenous in cells; host or cells: human PBMCs (Milecell Biotechnologies)
The assay is described as above. The format is cell-based.

Assay [8] deals with T5, WEE1 (Homo sapiens, UniProt P30291+Q96SW2).
T5 construct: effects of the compounds of the present disclosure on the expression of target proteins in cells; endogenous in cells; host or cells: human PBMCs (Milecell Biotechnologies)
T5 sequence (P30291 whole entry): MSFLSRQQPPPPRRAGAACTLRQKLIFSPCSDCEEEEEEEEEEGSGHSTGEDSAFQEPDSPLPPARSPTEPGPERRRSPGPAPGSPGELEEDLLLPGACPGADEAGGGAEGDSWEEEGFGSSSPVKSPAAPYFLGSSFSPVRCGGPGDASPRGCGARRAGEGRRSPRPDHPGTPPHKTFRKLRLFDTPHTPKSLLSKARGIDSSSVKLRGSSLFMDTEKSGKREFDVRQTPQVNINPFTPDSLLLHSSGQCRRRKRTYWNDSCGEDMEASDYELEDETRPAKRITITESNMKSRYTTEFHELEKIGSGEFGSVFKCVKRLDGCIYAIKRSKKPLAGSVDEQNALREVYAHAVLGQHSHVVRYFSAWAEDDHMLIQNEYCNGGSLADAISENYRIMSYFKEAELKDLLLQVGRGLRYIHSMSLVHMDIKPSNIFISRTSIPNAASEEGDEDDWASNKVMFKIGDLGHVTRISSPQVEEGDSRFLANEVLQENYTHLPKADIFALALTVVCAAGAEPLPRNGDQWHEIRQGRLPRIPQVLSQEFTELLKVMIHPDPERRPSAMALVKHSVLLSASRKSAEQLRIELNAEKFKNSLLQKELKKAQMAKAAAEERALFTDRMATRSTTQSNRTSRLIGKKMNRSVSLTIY
T5 sequence (Q96SW2 whole entry): as the sequence (Q96SW2 whole entry) above
T5 sequence (Q16531 whole entry partner): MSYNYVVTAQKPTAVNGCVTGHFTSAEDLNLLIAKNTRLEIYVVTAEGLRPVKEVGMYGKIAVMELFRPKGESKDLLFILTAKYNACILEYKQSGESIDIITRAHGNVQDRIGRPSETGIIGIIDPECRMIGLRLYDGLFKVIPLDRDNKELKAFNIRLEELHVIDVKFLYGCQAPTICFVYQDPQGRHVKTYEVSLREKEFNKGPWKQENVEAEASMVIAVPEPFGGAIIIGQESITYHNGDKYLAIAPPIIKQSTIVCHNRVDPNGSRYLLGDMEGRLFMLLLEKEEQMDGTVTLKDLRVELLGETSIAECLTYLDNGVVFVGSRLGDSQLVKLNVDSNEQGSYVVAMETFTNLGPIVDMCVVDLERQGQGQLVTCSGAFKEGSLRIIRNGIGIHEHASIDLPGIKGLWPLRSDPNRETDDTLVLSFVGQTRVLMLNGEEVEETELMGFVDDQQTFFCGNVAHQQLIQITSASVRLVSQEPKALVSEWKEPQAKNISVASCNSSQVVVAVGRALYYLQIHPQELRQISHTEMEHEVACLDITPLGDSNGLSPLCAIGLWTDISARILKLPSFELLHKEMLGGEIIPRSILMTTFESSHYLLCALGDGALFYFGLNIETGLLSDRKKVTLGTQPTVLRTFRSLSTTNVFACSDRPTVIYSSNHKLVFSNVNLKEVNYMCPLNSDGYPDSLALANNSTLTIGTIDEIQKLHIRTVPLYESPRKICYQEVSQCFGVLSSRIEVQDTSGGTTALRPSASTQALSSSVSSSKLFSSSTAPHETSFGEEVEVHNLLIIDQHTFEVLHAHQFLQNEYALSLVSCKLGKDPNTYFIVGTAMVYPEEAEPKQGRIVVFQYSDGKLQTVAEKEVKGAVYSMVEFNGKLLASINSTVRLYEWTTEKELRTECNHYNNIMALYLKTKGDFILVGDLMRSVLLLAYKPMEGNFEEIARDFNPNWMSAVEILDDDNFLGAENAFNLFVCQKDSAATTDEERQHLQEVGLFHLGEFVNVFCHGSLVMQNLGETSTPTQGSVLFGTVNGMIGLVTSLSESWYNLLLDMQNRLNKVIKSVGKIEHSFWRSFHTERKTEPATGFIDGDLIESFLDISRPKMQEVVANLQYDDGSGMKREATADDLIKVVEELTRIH
Described as above. The class given is cell-based.

Assay [9] deals with T6, IKZF3 (Homo sapiens, UniProt Q96SW2+Q9UKT9).
T6 construct: effects of the compounds of the present disclosure on the expression of target proteins in cells; endogenous in cells; host or cells: human PBMCs (Milecell Biotechnologies)
T6 sequence (Q9UKT9 whole entry): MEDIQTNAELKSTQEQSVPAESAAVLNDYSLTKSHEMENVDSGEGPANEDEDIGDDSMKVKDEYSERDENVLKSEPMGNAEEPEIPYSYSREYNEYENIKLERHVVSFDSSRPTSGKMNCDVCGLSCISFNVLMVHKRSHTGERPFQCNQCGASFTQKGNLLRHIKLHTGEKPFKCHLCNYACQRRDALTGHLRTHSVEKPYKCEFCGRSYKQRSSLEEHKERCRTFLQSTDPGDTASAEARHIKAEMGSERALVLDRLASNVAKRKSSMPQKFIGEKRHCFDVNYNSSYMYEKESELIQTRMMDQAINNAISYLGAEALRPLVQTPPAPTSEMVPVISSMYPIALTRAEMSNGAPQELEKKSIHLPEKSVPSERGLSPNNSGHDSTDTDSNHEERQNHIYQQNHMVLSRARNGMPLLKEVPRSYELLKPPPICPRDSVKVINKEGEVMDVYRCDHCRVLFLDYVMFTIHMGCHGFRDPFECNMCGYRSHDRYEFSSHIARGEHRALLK
T6 sequence (Q96SW2 whole entry): as the sequence (Q96SW2 whole entry) above
T6 sequence (Q16531 whole entry partner): as the sequence (Q16531 whole entry partner) above
The description is as above. The format is cell-based.

In assay [10] the test system is Human multiple myeloma cell (MM.1S). The assay can be described thus: Tumor cell proliferation inhibition (CellTiter-Meiluncell luminescent cell viability assay). Particulars: Homo sapiens, MM1.S, 96 h; for inhibition at 0.01 µM: read-out: Inhibition Rate at 10 nM (%); for inhibition at 0.5 µM: read-out: Inhibition Rate at 500 nM (%).
Where [11] appears, read: 24 hours treatment, compounds at 50 nM and 500 nM (concentration behind the class not stated).
[12] abbreviates: Western blot, 24 hours of compound treatment, compounds tested at 50 nM and 500 nM (concentration for the table not stated).

T3 sequence (P48729 whole entry): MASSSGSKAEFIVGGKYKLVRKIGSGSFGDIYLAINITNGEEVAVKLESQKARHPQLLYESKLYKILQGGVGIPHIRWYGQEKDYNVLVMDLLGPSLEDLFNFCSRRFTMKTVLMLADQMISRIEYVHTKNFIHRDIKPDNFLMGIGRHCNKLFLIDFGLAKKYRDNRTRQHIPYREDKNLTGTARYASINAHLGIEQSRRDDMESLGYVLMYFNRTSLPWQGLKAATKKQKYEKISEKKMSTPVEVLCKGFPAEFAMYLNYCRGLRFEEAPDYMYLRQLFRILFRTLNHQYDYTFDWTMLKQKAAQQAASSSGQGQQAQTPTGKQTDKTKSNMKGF
T3 sequence (Q96SW2 whole entry): as the sequence (Q96SW2 whole entry) above
T3 sequence (Q16531 whole entry partner): as the sequence (Q16531 whole entry partner) above
T2 sequence (Q9UKS7 whole entry): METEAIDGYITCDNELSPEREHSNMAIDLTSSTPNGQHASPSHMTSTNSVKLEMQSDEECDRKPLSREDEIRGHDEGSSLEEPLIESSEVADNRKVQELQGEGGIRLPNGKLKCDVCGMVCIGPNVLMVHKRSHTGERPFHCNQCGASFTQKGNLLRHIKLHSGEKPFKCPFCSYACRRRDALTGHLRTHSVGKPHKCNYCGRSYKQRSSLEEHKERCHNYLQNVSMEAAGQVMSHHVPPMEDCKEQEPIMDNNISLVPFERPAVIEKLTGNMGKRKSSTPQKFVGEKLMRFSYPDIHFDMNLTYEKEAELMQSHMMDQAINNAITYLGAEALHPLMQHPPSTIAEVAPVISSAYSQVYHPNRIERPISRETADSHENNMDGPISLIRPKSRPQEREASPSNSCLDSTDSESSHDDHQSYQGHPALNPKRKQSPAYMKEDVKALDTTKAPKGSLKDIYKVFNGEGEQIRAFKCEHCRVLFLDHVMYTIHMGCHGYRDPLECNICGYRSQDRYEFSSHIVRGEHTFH
T2 sequence (Q96SW2 whole entry): as the sequence (Q96SW2 whole entry) above
T2 sequence (Q16531 whole entry partner): as the sequence (Q16531 whole entry partner) above
T4 sequence (Q13422 whole entry): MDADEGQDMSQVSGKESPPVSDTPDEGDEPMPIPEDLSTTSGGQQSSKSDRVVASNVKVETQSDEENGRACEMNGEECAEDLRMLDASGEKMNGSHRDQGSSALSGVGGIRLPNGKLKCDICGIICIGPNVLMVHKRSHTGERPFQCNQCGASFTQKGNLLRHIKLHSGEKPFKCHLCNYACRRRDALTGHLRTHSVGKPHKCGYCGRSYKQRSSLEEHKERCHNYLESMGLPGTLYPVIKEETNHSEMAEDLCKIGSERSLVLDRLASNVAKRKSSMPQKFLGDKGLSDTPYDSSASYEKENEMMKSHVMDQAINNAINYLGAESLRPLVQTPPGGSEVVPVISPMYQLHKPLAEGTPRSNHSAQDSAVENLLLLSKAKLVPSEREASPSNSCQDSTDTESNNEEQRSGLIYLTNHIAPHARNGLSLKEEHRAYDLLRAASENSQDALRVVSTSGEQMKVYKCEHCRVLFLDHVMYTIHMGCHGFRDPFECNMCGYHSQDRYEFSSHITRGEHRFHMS
T4 sequence (Q96SW2 whole entry): as the sequence (Q96SW2 whole entry) above
T4 sequence (Q16531 whole entry partner): as the sequence (Q16531 whole entry partner) above

Consider `Cc1cc(N2CCN(Cc3ccc4c(c3)CN(C3CCC(=O)NC3=O)C4=S)CC2)cs1` (stereo not drawn) [GT-08170, 3-(5-((4-(5-methylthiophen-3-yl)piperazin-1-yl)methyl)-1-thioxoisoindolin-2-yl)piperidine-2,6-dione], for which the “GSPT1 substrate protein remaining %” value in assay [1] (setting [11]) was “A (0% ≤ substrate protein remaining % ≤ 80%)”. In [2], the inhibition – broadly, the change of the read-out against control, counted positive when it falls – at 0.5 µM was 60 to 80% and the inhibition at 2 µM lay in the range of 80 to 100%. Moreover, in assay [3], the inhibition at 0.01 µM was 25 to 30% and the inhibition at 0.5 µM is 60 to 80%. Besides, in [4], the inhibition at 0.01 µM lay in the range of 5 to 10% and the inhibition at 0.5 µM is 60 to 70%. Besides, the “IKZF2 substrate protein remaining %” value in assay [5] (setting [11]) was “A (0% ≤ substrate protein remaining % ≤ 80%)”. In addition, the “CK1α substrate protein remaining %” value in assay [6] (setting [11]) is on record as “A (0% ≤ substrate protein remaining % ≤ 80%)”. In assay [7] (setting [11]), the “IKZF 1 substrate protein remaining %” value is given as “B (80%< substrate protein remaining %≤ 100%)”. Moreover, the “Wee1 substrate protein remaining %” value in assay [8] (setting [11]) is given as “B (80%< substrate protein remaining %≤ 100%)”. Further, the “IKZF3 substrate protein remaining %” value in assay [9] (setting [11]) is “A (0% ≤ substrate protein remaining % ≤ 80%)”.

As for `COc1ccccc1N1CCN(Cc2ccc3c(c2)CN(C2CCC(=O)NC2=O)C3=S)CC1` (stereo not drawn) [GT-08236, 3-(5-((4-(2-methoxyphenyl)piperazin-1-yl)methyl)-1-thioxoisoindolin-2-yl)piperidine-2,6-dione], the “GSPT1 substrate protein remaining %” value in assay [1] (setting [12]) is reported as “A (0% ≤ substrate protein remaining % ≤ 80%)”. Moreover, the results for the inhibition at 0.5 µM in assay [2], in [3] and in [4] were 40 to 53%, 60 to 80% and 40 to 50%, respectively. In [2], the inhibition at 2 µM lay in the range of 80 to 100%. The inhibition at 0.01 µM was in the range of 10 to 18% in [3] and 10 to 20% in assay [4]. Besides, in assay [5] (setting [12]), the “IKZF2 substrate protein remaining %” value is recorded as “B (80%< substrate protein remaining %≤ 100%)”. Further, in [6] (setting [12]), the “CK1α substrate protein remaining %” value is recorded as “B (80%< substrate protein remaining %≤ 100%)”. In addition, in assay [7] (setting [12]), the “IKZF 1 substrate protein remaining %” value is reported as “B (80%< substrate protein remaining %≤ 100%)”. For the same compound, the “Wee1 substrate protein remaining %” value in assay [8] (setting [12]) is “B (80%< substrate protein remaining %≤ 100%)”. In addition, in assay [9] (setting [12]), the “IKZF3 substrate protein remaining %” value is given as “B (80%< substrate protein remaining %≤ 100%)”.

For the compound `O=C1CCC(N2Cc3cc(CN4CCN(c5ccc(Cl)c(Cl)c5)CC4)ccc3C2=S)C(=O)N1` (stereo not drawn) [GT-08612, 3-(5-((4-(3,4-dichlorophenyl)piperazin-1-yl)methyl)-1-thioxoisoindolin-2-yl)piperidine-2,6-dione], in assay [1] (setting [12]), the “GSPT1 substrate protein remaining %” value was “A (0% ≤ substrate protein remaining % ≤ 80%)”. Further, in assay [2], the inhibition at 0.5 µM lay in the range of 30 to 40% and the inhibition at 2 µM is 60 to 80%. For the same compound, in [4], the inhibition at 0.01 µM lay within 10 to 20% and the inhibition at 0.5 µM lay within 50 to 60%. The “IKZF2 substrate protein remaining %” value in assay [5] (setting [12]) is “B (80%< substrate protein remaining %≤ 100%)”. Further, the “CK1α substrate protein remaining %” value in assay [6] (setting [12]) is reported as “B (80%< substrate protein remaining %≤ 100%)”. In assay [7] (setting [12]), the “IKZF 1 substrate protein remaining %” value is recorded as “B (80%< substrate protein remaining %≤ 100%)”. Moreover, the “Wee1 substrate protein remaining %” value in [8] (setting [12]) is recorded as “B (80%< substrate protein remaining %≤ 100%)”. For the same compound, the “IKZF3 substrate protein remaining %” value in assay [9] (setting [12]) is listed as “B (80%< substrate protein remaining %≤ 100%)”.

In the case of `Cc1ccc(Cl)cc1N1CCN(Cc2ccc3c(c2)CN(C2CCC(=O)NC2=O)C3=S)CC1` (stereo not drawn) [GT-08615, 3-(5-((4-(5-chloro-2-methylphenyl)piperazin-1-yl)methyl)-1-thioxoisoindolin-2-yl)piperidine-2,6-dione], in assay [1] (setting [12]), the “GSPT1 substrate protein remaining %” value was “A (0% ≤ substrate protein remaining % ≤ 80%)”. In addition, the inhibition at 0.5 µM in assay [2] is 30 to 40%; in assay [4], 50 to 60%; in assay [10] it was 40 to 50%. In [2], the inhibition at 2 µM lay in the range of 60 to 80%. The inhibition at 0.01 µM was 5 to 10% in [4] and 10 to 20% in assay [10]. For the same compound, the “IKZF2 substrate protein remaining %” value in assay [5] (setting [12]) is reported as “B (80%< substrate protein remaining %≤ 100%)”. The “CK1α substrate protein remaining %” value in [6] (setting [12]) is “B (80%< substrate protein remaining %≤ 100%)”. For the same compound, the “IKZF 1 substrate protein remaining %” value in [7] (setting [12]) is recorded as “B (80%< substrate protein remaining %≤ 100%)”. For the same compound, the “Wee1 substrate protein remaining %” value in assay [8] (setting [12]) was “B (80%< substrate protein remaining %≤ 100%)”. In addition, the “IKZF3 substrate protein remaining %” value in [9] (setting [12]) is given as “B (80%< substrate protein remaining %≤ 100%)”.

Turning to `O=C1CCC(N2Cc3c(CN4CCN(Cc5ccc(-c6ccc(Cl)cc6)cc5)CC4)cccc3C2=S)C(=O)N1` (stereo not drawn) [GT-08960, 3-(4-((4-((4'-chloro-[1,1'-biphenyl]-4-yl)methyl)piperazin-1-yl)methyl)-1-thioxoisoindolin-2-yl)piperidine-2,6-dione], in assay [2], the inhibition at 0.5 µM is 53 to 60% and the inhibition at 2 µM lay in the range of 80 to 100%. In [4], the inhibition at 0.01 µM was in the range of 20 to 30% and the inhibition at 0.5 µM is 40 to 50%.

As for `O=C1CCC(N2Cc3cc(CN4CCN(c5ccnc(Cl)c5Br)CC4)ccc3C2=S)C(=O)N1` (stereo not drawn) [GT-09240, 3-(5-((4-(3-bromo-2-chloropyridin-4-yl)piperazin-1-yl)methyl)-1-thioxoisoindolin-2-yl)piperidine-2,6-dione], the “GSPT1 substrate protein remaining %” value in [1] (setting [11]) is listed as “A (0% ≤ substrate protein remaining % ≤ 80%)”. Besides, in [2], the inhibition at 0.5 µM lay in the range of 80 to 100% and the inhibition at 2 µM is 80 to 100%. In [4], the inhibition at 0.01 µM lay within 50 to 60% and the inhibition at 0.5 µM fell in the range of 30 to 40%. Further, in [5] (setting [11]), the “IKZF2 substrate protein remaining %” value is “B (80%< substrate protein remaining %≤ 100%)”. In [6] (setting [11]), the “CK1α substrate protein remaining %” value is “B (80%< substrate protein remaining %≤ 100%)”. In addition, the “IKZF 1 substrate protein remaining %” value in assay [7] (setting [11]) is reported as “A (0% ≤ substrate protein remaining % ≤ 80%)”. Moreover, the “Wee1 substrate protein remaining %” value in [8] (setting [11]) is given as “B (80%< substrate protein remaining %≤ 100%)”. Besides, the “IKZF3 substrate protein remaining %” value in assay [9] (setting [11]) was “B (80%< substrate protein remaining %≤ 100%)”.

With `O=C1CCC(N2Cc3cc(CN4CCN(c5c[nH]c6ncccc56)CC4)ccc3C2=S)C(=O)N1` (stereo not drawn) [GT-09261, 3-(5-((4-(1H-pyrrolo[2,3-b]pyridin-3-yl)piperazin-1-yl)methyl)-1-thioxoisoindolin-2-yl)piperidine-2,6-dione], the “GSPT1 substrate protein remaining %” value in assay [1] (setting [11]) is listed as “A (0% ≤ substrate protein remaining % ≤ 80%)”. For the same compound, in assay [2], the inhibition at 0.5 µM was 53 to 60% and the inhibition at 2 µM lay in the range of 80 to 100%. In assay [3], the inhibition at 0.01 µM was 40 to 60% and the inhibition at 0.5 µM was in the range of 40 to 60%. In addition, in assay [10], the inhibition at 0.01 µM was 40 to 50% and the inhibition at 0.5 µM is 40 to 50%. In assay [5] (setting [11]), the “IKZF2 substrate protein remaining %” value is given as “B (80%< substrate protein remaining %≤ 100%)”. For the same compound, the “CK1α substrate protein remaining %” value in assay [6] (setting [11]) is on record as “B (80%< substrate protein remaining %≤ 100%)”. Also, the “IKZF 1 substrate protein remaining %” value in [7] (setting [11]) was “B (80%< substrate protein remaining %≤ 100%)”. Also, in assay [8] (setting [11]), the “Wee1 substrate protein remaining %” value is on record as “B (80%< substrate protein remaining %≤ 100%)”. Moreover, in assay [9] (setting [11]), the “IKZF3 substrate protein remaining %” value was “B (80%< substrate protein remaining %≤ 100%)”.

For the compound `O=C1CCC(N2Cc3cc(CN4CCN(c5c(Cl)cncc5Br)CC4)ccc3C2=S)C(=O)N1` (stereo not drawn) [GT-09264, 3-(5-((4-(3-bromo-5-chloropyridin-4-yl)piperazin-1-yl)methyl)-1-thioxoisoindolin-2-yl)piperidine-2,6-dione], in assay [1] (setting [11]), the “GSPT1 substrate protein remaining %” value is listed as “A (0% ≤ substrate protein remaining % ≤ 80%)”. Also, the inhibition at 0.5 µM in assay [2] was 80 to 100%; in assay [3], 40 to 60%; in [10], 40 to 50%. Further, the inhibition at 2 µM in assay [2] lay within 80 to 100%. In addition, the inhibition at 0.01 µM in [3] and in assay [10] was 30 to 40% throughout. The “IKZF2 substrate protein remaining %” value in assay [5] (setting [11]) was “B (80%< substrate protein remaining %≤ 100%)”. In assay [6] (setting [11]), the “CK1α substrate protein remaining %” value was “B (80%< substrate protein remaining %≤ 100%)”. Besides, the “IKZF 1 substrate protein remaining %” value in [7] (setting [11]) is listed as “B (80%< substrate protein remaining %≤ 100%)”. Besides, in [8] (setting [11]), the “Wee1 substrate protein remaining %” value is “B (80%< substrate protein remaining %≤ 100%)”. In [9] (setting [11]), the “IKZF3 substrate protein remaining %” value was “B (80%< substrate protein remaining %≤ 100%)”.
